This is an account of results in article PMC7594867 (Journal of Enzyme Inhibition and Medicinal Chemistry, 2020).

Read-outs that look alike come from different tables or passages of the source.

A word on the IC50: it is the concentration at which inhibition is half-maximal.

Experiment [1] has as its system MCF-7 cells. Description: Cell cycle analysis. The class given is cell-based. The conditions noted are these: for effect on cell cycle: MCF-7, 24 h, 1, 5, 10 µM; for number of cells in the G1 cell-cycle phase: MCF-7, 24 h, highest increase, concentration not given.
The test system of experiment [2] is normal human foetal lung fibroblast (MRC-5). Nature of the experiment: MTT cytotoxicity assay, normal MRC-5 cells. Conditions: MRC5, 72 h, read-out: IC50 (µM ± SD) MRC-5. The class given is cell-based. (Tetrazolium dyes change colour on reduction, which living cells bring about.)
The target in the next experiment is CDK-2 (Homo sapiens, UniProt P24941). Description: CDK-2 inhibition, ADP-Glo kinase assay. It counts as biochemical. Background: In ADP-Glo the light output rises with the ADP produced.
Experiment [3] concerns MCF-7, A2780, and HT29 cell lines. Nature of the experiment: MTT cytotoxicity assay, three cancer cell lines taken together. It counts as cell-based.
Experiment [4] concerns MCF-7 cells. Nature of the experiment: Annexin V-FITC/PI staining apoptosis assay. It counts as cell-based. Conditions: MCF-7, 24 h, control 0%.
In another experiment the test system is HT29. Description: MTT cytotoxicity assay, HT29. It counts as cell-based. The conditions noted are these: for IC50: Homo sapiens, HT-29, 72 h, read-out: IC50 ± SD, HT29; for Selectivity index, HT29: IC50 MRC-5 / IC50 HT29.
The subject of another experiment is MCF-7. Description: MTT cytotoxicity assay, MCF-7. It counts as cell-based. The conditions noted are these: for IC50: Homo sapiens, MCF7, 72 h, read-out: IC50 ± SD, MCF-7; for Selectivity index, MCF-7: IC50 MRC-5 / IC50 MCF-7.
The next experiment deals with A2780. Description: MTT cytotoxicity assay, A2780. The class given is cell-based. The conditions noted are these: for IC50: Homo sapiens, A2780, 72 h, read-out: IC50 ± SD, A2780; for Selectivity index, A2780: IC50 MRC-5 / IC50 A2780.

For `Cc1ccc(NC(=O)c2c(NC(=O)Nc3ccc(F)cc3)c(C#N)c3n2CCC3)cc1` [Compound 18b, 7-Cyano-6-(3-(4-fluorophenyl)ureido)-N-(p-tolyl)-2,3-dihydro-1H-pyrrolizine-5-carboxamide], the “effect on cell cycle” value in the experiment on MCF-7 cells [1] was “G1 -S cell cycle arrest”. The “number of cells in the G1 cell-cycle phase” value (from here on “number of cells”) in the experiment with MCF-7 cells [1] was determined as 53%. The IC50 in experiment [2] is 1.46 ± 0.42 µM; on CDK-2, 115 ± 3.2 nM; in experiment [3] (read-out: Average IC50), 3620 nM; in the experiment on HT29, 9710 ± 2250 nM; in the experiment with MCF-7, 190 ± 20 nM; with A2780 it was 970 ± 140 nM. The molecule further showed an apoptotic events with MCF-7 cells [4] (1 µM) of 20%. In the experiment on HT29, the “Selectivity index, HT29” value is on record as 0.15. Moreover, in the experiment with MCF-7, the “Selectivity index, MCF-7” value is 7.68. In addition, in the experiment on A2780, the “Selectivity index, A2780” value was 1.51.
As for `N#Cc1c(NC(=O)Nc2cccc3ccccc23)c(C(=O)Nc2ccccc2)n2c1CCC2` [Compound 19a, 7-Cyano-6-(3-(naphthalen-1-yl)ureido)-N-phenyl-2,3-dihydro-1H-pyrrolizine-5-carboxamide], the “effect on cell cycle” value with MCF-7 cells [1] was “G1 -S cell cycle arrest”. In addition, the “number of cells” value in the experiment with MCF-7 cells [1] is on record as 70%. The IC50 came out at 2.67 ± 0.37 µM in experiment [2]; 25.5 ± 1.7 nM against CDK-2; 310 nM in experiment [3] (read-out: Average IC50); 200 ± 10 nM with HT29; 400 ± 420 nM in the experiment with MCF-7; 320 ± 170 nM with A2780. Besides, the “Selectivity index, HT29” value in the experiment on HT29 came to 13.35. The “Selectivity index, MCF-7” value with MCF-7 is reported as 6.68. Besides, in the experiment on A2780, the “Selectivity index, A2780” value is 8.34.
As for `N#Cc1c(NC(=S)Nc2cccc3ccccc23)c(C(=O)Nc2ccccc2)n2c1CCC2` [Compound 20a, 7-Cyano-6-(3-(naphthalen-1-yl)thioureido)-N-phenyl-2,3-dihydro-1H-pyrrolizine-5-carboxamide], the “effect on cell cycle” value in the experiment on MCF-7 cells [1] is recorded as “G1 -S cell cycle arrest”. In the experiment with MCF-7 cells [1], the “number of cells” value worked out at 57%. Besides, the 50% inhibitory concentration (IC50) stood at 0.43 ± 0.13 µM in experiment [2]; 77.9 ± 2.2 nM on CDK-2; 430 nM in experiment [3] (read-out: Average IC50); 720 ± 120 nM with HT29; 420 ± 150 nM in the experiment on MCF-7; 160 ± 10 nM in the experiment on A2780. In addition, the results for the apoptotic events in the experiment on MCF-7 cells [4] (1 µM), in the experiment with MCF-7 cells [4] (5 µM) and with MCF-7 cells [4] (10 µM) were 38%, 39% and 47%, respectively. For the same molecule, in the experiment with HT29, the “Selectivity index, HT29” value was determined as 0.60. For the same molecule, the “Selectivity index, MCF-7” value in the experiment with MCF-7 is recorded as 1.02. Moreover, the “Selectivity index, A2780” value in the experiment with A2780 came to 2.69.
Regarding `CS(=O)(=O)CCNCc1ccc(-c2ccc3ncnc(Nc4ccc(OCc5cccc(F)c5)c(Cl)c4)c3c2)o1` [Lapatinib, lapatinib, reference compound], the IC50 in experiment [2] is 6.74 ± 1.22 µM; in experiment [3] (72 h, read-out: IC50, range over the three cancer cell lines), 6770 to 12500 nM; in experiment [3] (read-out: Average IC50), 9920 nM; in the experiment with HT29, 12500 ± 1270 nM; in the experiment with MCF-7, 6770 ± 1160 nM; in the experiment with A2780, 10500 ± 760 nM. Further, the “Selectivity index, HT29” value with HT29 came to 0.54. In addition, in the experiment on MCF-7, the “Selectivity index, MCF-7” value worked out at 1.00. Besides, the “Selectivity index, A2780” value in the experiment on A2780 worked out at 0.64.
